From paper PMC2847595 (Nuclear medicine and biology, 2010)

Tests used:
[1] = Ex vivo radio-HPLC analysis of mouse plasma after radiotracer injection; assay type: in vivo; conditions: for plasma concentration: 30 min after radiotracer injection; for increase of plasma concentration by ketoconazole pretreatment: both wild-type and knockout mice, ketoconazole 50 mg/kg i.p.
[2] = Ex vivo radio-HPLC analysis of mouse whole brain after radiotracer injection; assay type: in vivo; conditions: for increase of brain concentration by ketoconazole pretreatment: ketoconazole 50 mg/kg i.p.; for brain concentration: 30 min after radiotracer injection
P-glycoprotein (P-gp) = conditions: cited from earlier work
CYP3A4 = conditions: cited from earlier work
cDNA-expressed CYP3A4 = conditions: in vitro; cited from earlier work
[3] = P-gp knockout mice, baseline (no ketoconazole)
[4] = P-gp knockout mice, ketoconazole 50 mg/kg i.p. pretreatment
[5] = wild-type mice, baseline (no ketoconazole)
[6] = wild-type mice, ketoconazole 50 mg/kg i.p. pretreatment
[7] = P-gp knockout mice, after [11C]loperamide
[8] = wild-type mice, after [11C]loperamide

Row | SMILES | plasma concentration [1, 3] [% SUV] | plasma concentration [1, 4] [% SUV] | increase of plasma concentration by ketoconazole pretreatment [1] | plasma concentration [1, 5] [% SUV] | plasma concentration [1, 6] [% SUV] | increase of brain concentration by ketoconazole pretreatment [2, 7] | brain concentration ([2]; P-gp knockout mice, baseline) [% SUV] | brain concentration [2, 4] [% SUV] | effect of ketoconazole pretreatment on brain concentration ([2]; either knockout or wild-type mice, after [11C]dLop) | effect of ketoconazole pretreatment on brain concentration [2, 8] | brain concentration ([2]; wild-type mice, baseline) [% SUV] | brain concentration [2, 6] [% SUV] | P-gp substrate (P-glycoprotein (P-gp)) | Ki (CYP3A4) [nM] | inhibition of the N-demethylation of loperamide (cDNA-expressed CYP3A4) [%]
1 | CN([11CH3])C(=O)C(CCN1CCC(O)(c2ccc(Cl)cc2)CC1)(c1ccccc1)c1ccccc1 [[^11C]dLop] [[N-methyl-^11C]N-desmethyl-loperamide] | 2.26 ± 0.54 | 3.4 ± 0.4 | about two-fold | 1.36 ± 0.18 | 3.3 ± 0.4 | two-fold | 37.1 ± 7.3 | 37.9 ± 6.7 | little effect | did not increase | 1.93 ± 0.52 | 2.2 ± 0.5 | avid substrate for P-gp |  | 
2 | CC(=O)N1CCN(c2ccc(OCC3COC(Cn4ccnc4)(c4ccc(Cl)cc4Cl)O3)cc2)CC1 (stereo not drawn) [ketoconazole] |  |  |  |  |  |  |  |  |  |  |  |  |  | […] | 90
3 | CN([11CH3])C(=O)C(CCN1CCC(O)(c2ccc(Cl)cc2)CC1)(c1ccccc1)c1ccccc1 [[^11C]loperamide] [[N-methyl-^11C]loperamide] | 7.37 ± 4.55 | 17.1± 9.0 | about two-fold | 10.3 ± 2.1 | 17.6 ± 5.9 | about two-fold | 20.4 ± 3.2 | 43.9 ± 14.0 |  | no effect | 2.86 ± 0.97 | 2.9± 0.7 |  |  | 
4 | CN(C)C(=O)C(CCN1CCC(O)(c2ccc(Cl)cc2)CC1)(c1ccccc1)c1ccccc1 [loperamide, reference compound] |  |  |  |  |  |  |  |  |  |  |  |  | avid substrate for P-gp |  | 
